Reference: ChEMBL document CHEMBL5108044, “Discovery of a Novel Potent STAT3 Inhibitor HP590 with Dual p-Tyr705/Ser727 Inhibitory Activity for Gastric Cancer Treatment” (J Med Chem, 2022)
pIC50: −log10 of the molar value.

target: Signal transducer and activator of transcription 3 (Homo sapiens, UniProt P40763); assay: Inhibition of human recombinant STAT3 (127 to 722 residues) transcriptional activity expressed in HEK293T cells in presence of IL-6 by Dual-luciferase reporter gene assay; assay type: cell-based
Sequence (P40763 whole entry, the tested form may be a part): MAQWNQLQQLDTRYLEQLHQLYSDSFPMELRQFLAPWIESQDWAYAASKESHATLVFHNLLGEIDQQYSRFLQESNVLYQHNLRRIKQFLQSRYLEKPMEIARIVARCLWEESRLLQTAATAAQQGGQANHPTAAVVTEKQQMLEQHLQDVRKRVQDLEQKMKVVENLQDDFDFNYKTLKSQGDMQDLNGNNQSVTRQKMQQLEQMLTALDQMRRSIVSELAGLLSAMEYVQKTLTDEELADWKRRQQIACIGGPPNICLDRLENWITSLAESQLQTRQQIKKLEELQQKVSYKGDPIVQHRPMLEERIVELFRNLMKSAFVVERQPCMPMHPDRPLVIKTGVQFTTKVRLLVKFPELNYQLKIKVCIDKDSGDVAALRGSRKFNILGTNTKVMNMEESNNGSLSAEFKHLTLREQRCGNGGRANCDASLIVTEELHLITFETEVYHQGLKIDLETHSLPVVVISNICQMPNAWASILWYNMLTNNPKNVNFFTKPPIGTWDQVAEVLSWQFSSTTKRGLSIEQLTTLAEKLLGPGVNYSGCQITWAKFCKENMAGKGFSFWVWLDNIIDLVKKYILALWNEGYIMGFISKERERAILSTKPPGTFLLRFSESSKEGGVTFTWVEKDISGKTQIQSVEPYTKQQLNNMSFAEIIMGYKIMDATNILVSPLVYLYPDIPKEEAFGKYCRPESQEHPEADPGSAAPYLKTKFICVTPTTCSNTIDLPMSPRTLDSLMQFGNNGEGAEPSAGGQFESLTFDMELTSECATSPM

Row | pIC50 | Structure (SMILES)
1 | 6.32 | N#Cc1ccc(CN2CCN(C(=O)c3ccc(-c4nc(-c5ccc(C(F)(F)F)cc5)no4)nc3)CC2)cc1
2 | < 6.00 | O=C(c1ccc(-c2nc(-c3ccc(C(F)(F)F)cc3)no2)nc1)N1CCN(Cc2ccccc2OC(F)(F)F)CC1
3 | 6.49 | O=C(c1ccc(-c2nc(-c3ccc(C(F)(F)F)cc3)no2)nc1)N1CCN(Cc2cccc(OC(F)(F)F)c2)CC1
4 | < 6.00 | O=C(c1ccc(-c2nc(-c3ccccc3C(F)(F)F)no2)nc1)N1CCN(Cc2ccc(OCC(F)(F)F)cc2)CC1
5 | 6.75 | O=C(c1ccc(-c2nc(-c3cccc(F)c3)no2)nc1)N1CCN(Cc2ccc(OCC(F)(F)F)cc2)CC1
6 | 6.52 | O=C(c1ccc(-c2nc(-c3ccc(C(F)(F)F)cc3)no2)nc1)N1CCN(Cc2ccc(F)cc2)CC1
7 | 6.59 | Cc1ccc(-c2noc(-c3ccc(C(=O)N4CCN(Cc5ccc(OCC(F)(F)F)cc5)CC4)cn3)n2)cc1
8 | < 6.00 | O=C(c1ccc(-c2nc(-c3ccc(C(F)(F)F)cc3C(F)(F)F)no2)nc1)N1CCN(Cc2ccc(OCC(F)(F)F)cc2)CC1
9 | 6.27 | CCCN1CCN(C(=O)c2ccc(-c3nc(-c4ccc(C(F)(F)F)cc4)no3)nc2)CC1
10 | 6.91 | O=C(c1ccc(-c2nc(-c3ccc(F)cc3)no2)nc1)N1CCN(Cc2ccc(OCC(F)(F)F)cc2)CC1
11 | 7.03 | O=C(c1ccc(-c2nc(-c3ccc(C(F)(F)F)cc3)co2)nc1)N1CCN(Cc2ccc(OCC(F)(F)F)cc2)CC1
12 | < 6.00 | O=C(c1ccc(-c2nc(-c3cccs3)no2)nc1)N1CCN(Cc2ccc(OCC(F)(F)F)cc2)CC1
13 | 6.53 | O=C(c1ccc(-c2nc(-c3ccc(C(F)(F)F)cc3)no2)nc1)N1CCN(Cc2ccc(Br)c(F)c2)CC1
14 | < 6.00 | O=C(c1ccc(-c2nc(-c3ccc(C(F)(F)F)cc3)no2)nc1)N1CCN(Cc2c(F)cc(Br)cc2F)CC1
15 | 7.03 | O=C(c1ccc(-c2nc(-c3ccc(Br)cc3)no2)nc1)N1CCN(Cc2ccc(OCC(F)(F)F)cc2)CC1
16 | 6.10 | O=C(c1ccc(-c2nc(-c3ccc(C(F)(F)F)cc3)no2)nc1)N1CCN(Cc2cccc(OCC(F)(F)F)c2)CC1
17 | < 6.00 | O=C(c1ccc(-c2nc(-c3ncccn3)no2)nc1)N1CCN(Cc2ccc(OCC(F)(F)F)cc2)CC1
18 | 6.96 | O=C(c1ccc(-c2nc(-c3ccc(C(F)(F)F)cc3)no2)nc1)N1CCN(Cc2ccc(Cl)cc2)CC1
19 | 6.76 | O=C(/C=C/c1ccc(OC(F)(F)F)cc1)N1CCN(C(=O)c2ccc(-c3nc(-c4ccc(C(F)(F)F)cc4)no3)nc2)CC1
20 | < 6.00 | Nc1ccc(CN2CCN(C(=O)c3ccc(-c4nc(-c5ccc(C(F)(F)F)cc5)no4)nc3)CC2)cc1
21 | < 6.00 | O=C(c1ccc(-c2nc(-c3ccccc3)no2)nc1)N1CCN(Cc2ccc(OCC(F)(F)F)cc2)CC1
22 | 6.57 | O=C(c1ccc(-c2nc(-c3ccc(Cl)cc3)no2)nc1)N1CCN(Cc2ccc(OCC(F)(F)F)cc2)CC1
23 | 6.51 | CC(=O)Oc1ccc(CN2CCN(C(=O)c3ccc(-c4nc(-c5ccc(C(F)(F)F)cc5)no4)nc3)CC2)cc1
24 | 5.55 | CN1CCN(C(=O)c2ccc(-c3nc(-c4ccc(C(F)(F)F)cc4)no3)nc2)CC1
25 | 6.95 | O=C(c1ccc(-c2cn(-c3ccc(C(F)(F)F)cc3)nn2)nc1)N1CCN(Cc2ccc(OCC(F)(F)F)cc2)CC1
26 | 6.45 | O=C(Cc1ccc(OC(F)(F)F)cc1)N1CCN(C(=O)c2ccc(-c3nc(-c4ccc(C(F)(F)F)cc4)no3)nc2)CC1
27 | 6.56 | CS(=O)(=O)c1ccc(CN2CCN(C(=O)c3ccc(-c4nc(-c5ccc(C(F)(F)F)cc5)no4)nc3)CC2)cc1
28 | < 6.00 | CC(C)(C)c1ccc(-c2noc(-c3ccc(C(=O)N4CCN(Cc5ccc(OCC(F)(F)F)cc5)CC4)cn3)n2)cc1
